From patent US10604742B2, “Adsorptive membranes for trapping viruses” (Wisconsin Alumni Research Foundation, priority 2006, dated 2020)
Where two headings read alike, the source gives them in different places.

Tests used:
[1] = biological target: bovine serum albumin (BSA) (Bos taurus, UniProt P02769); assay: Function test 1: static BSA binding capacity of ligand-functionalized regenerated cellulose membranes (BCA method); conditions: 20 mM piperazine, pH 6.0
Procedure: These ligands were evaluated using two different function tests. In the first function test, bovine serum albumin (BSA) in 20 mM piperazine, pH 6.0, with and without added NaCl, was incubated with a functionalized regenerated cellulose membrane. Bound BSA was then measured using the bicinchoninic acid (BCA) colorimetric method. Function test 1 measured the static protein binding capacity of the membranes under conditions where the pH was close to the isoelectric point of the protein (pI of BSA=5.1). In this function test, the protein had only a weak charge and was sensitive to added salt. This first function test was designed to mimic the binding of a neutral virus where the charge is weak.
Each ligand was immobilized onto regenerated cellulose membranes having 0.45 μm pore diameter using allyl glycidyl ether. The allylated membrane was then brominated. Lastly the ligand was coupled to the membrane via the primary amine on the ligand.

neutral virus φX174 [2] = assay: Function test 2: LRV for φX174 using functionalized membranes in flow mode, TE buffer pH 7.5; format: binding, bacteriophage φX174; conditions: for φX174 LRV: TE buffer pH 7.5
Text: In these examples, the neutral virus φX174 is used because is one of five model non-pathogenic bacteriophage viruses commonly used in filtration studies to represent the gamut of physical properties of potential adventitious viruses of danger to humans (e.g., size, pI, presence or absence of a membrane). In short, the φX174 virus is an art-recognized virus for modeling viral clearance of dangerous pathogens.
Function test 2 measured the LRV for the neutral virus φX174 using the functionalized membranes in flow mode with TE buffer (10 mM Tris, 1 mM EDTA, pH 7.5) with and without added NaCl. Each ligand was immobilized onto regenerated cellulose membranes having 0.45 μm pore diameter using allyl glycidyl ether. The allylated membrane was then brominated. Lastly the ligand was coupled to the membrane via the primary amine on the ligand.

[3] = cited from earlier work
φX174 = conditions: cited from earlier work
neutral virus φX174 [4] = assay: Example 3: φX174 clearance by AGM membrane in presence of basic protein ribonuclease A (FIG. 10); format: binding, bacteriophage φX174; conditions: 0.5 g/L ribonuclease A, TE buffer pH 7.5, with and without added NaCl
Procedure: FIG. 10 is a graph depicting the performance of a virus-trapping membrane containing the immobilized ligand agmatine to remove a neutral virus (φX174) from a solution comprising a basic protein (0.5 g/L ribonuclease) and different concentrations of salt (□=0 mM NaCl; ▴=50 mM NaCl; ▪=150 mM NaCl).
AGM, for example, meets these requirements. […] According to the methods of Example 2, a disposable, micro-porous, regenerated-cellulose virus-trapping membrane was fabricated containing the ligand AGM immobilized on the membrane. The basic protein ribonuclease A (pI˜9.5) was used as a mAb surrogate. A feed solution comprising the neutral virus φX174 and 0.5 g/L of the basic protein ribonuclease A, both dissolved in TE buffer (10 mM Tris, 1 mM EDTA, pH 7.5), with and without added NaCl, was loaded into the membrane. Viral clearance was not reduced by the presence of the basic protein.

[5] = high-salt buffer (23 mS/cm); cited from earlier work

Sequence of bovine serum albumin (BSA) (P02769 25-607): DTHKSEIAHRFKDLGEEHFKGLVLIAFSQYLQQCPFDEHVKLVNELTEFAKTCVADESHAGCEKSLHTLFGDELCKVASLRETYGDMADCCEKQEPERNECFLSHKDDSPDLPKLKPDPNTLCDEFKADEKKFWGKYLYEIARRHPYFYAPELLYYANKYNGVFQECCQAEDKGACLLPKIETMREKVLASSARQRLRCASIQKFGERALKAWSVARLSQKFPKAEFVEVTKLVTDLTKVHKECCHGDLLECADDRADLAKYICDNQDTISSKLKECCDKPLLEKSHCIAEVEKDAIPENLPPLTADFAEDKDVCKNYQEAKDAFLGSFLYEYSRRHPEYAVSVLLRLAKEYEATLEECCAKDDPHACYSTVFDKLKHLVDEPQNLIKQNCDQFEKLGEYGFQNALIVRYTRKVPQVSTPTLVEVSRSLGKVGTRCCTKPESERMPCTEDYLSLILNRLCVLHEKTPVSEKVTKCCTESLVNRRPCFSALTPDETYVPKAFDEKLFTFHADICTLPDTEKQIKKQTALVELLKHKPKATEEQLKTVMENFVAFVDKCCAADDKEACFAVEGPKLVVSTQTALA

Row | Compound | BSA Static Capacity ([1]; 0 mM NaCl) | BSA Static Capacity ([1]; 50 mM NaCl) | BSA Static Capacity ([1]; 150 mM NaCl) | φX174 LRV (neutral virus φX174 [2]; 0 mM NaCl) | φX174 LRV (neutral virus φX174 [2]; 50 mM NaCl) | φX174 LRV (neutral virus φX174 [2]; 150 mM NaCl) | φX174 clearance (LRV) in the presence of salt (neutral virus φX174 [2]; in the presence of salt (50 and 150 mM)) | salt tolerance of viral clearance (neutral virus φX174 [2]; moderate salt concentration) | pKa [3] | viral clearance of φX174 (LRV) (φX174; 0 mM salt) | viral clearance of φX174 (LRV) (φX174; 0 mM salt, listed as “MUSTANG”® Q-brand adsorptive ligand) | viral clearance of φX174 (LRV) (φX174; 50 mM salt) | viral clearance of φX174 (LRV) (φX174; 50 mM salt, listed as “MUSTANG”® Q-brand adsorptive ligand) | viral clearance (LRV) of φX174 after adding the basic protein (neutral virus φX174 [4]) | charge at neutral pH [3] | dynamic binding capacity greater than the average of the five best non-aromatic anion-exchange ligands [5] | dynamic binding capacity relative to the Q ligand [5]
1 | Nc1nc2ccccc2[nH]1 [ABI, 2-aminobenzimidazole] | 414 mg/m^2 | 204 mg/m^2 | 108 mg/m^2 | 5.4 | 1.8 | 1.0 |  |  |  |  |  |  |  |  |  |  | 
2 | C[N+](C)(C)CCN.[Cl-] [AETMA, 2-aminoethyltrimethylammonium chloride, reference compound] | 551 mg/m^2 | 42 mg/m^2 | 10 mg/m^2 | 6.6 | 0.1 | 0.1 | ≈ 0.1 | not salt tolerant | >12 | six | 6 LRV | 1 LRV | less than 1 LRV |  |  |  | 
3 | N=C(N)NCCCCN [AGM, Agmatine] | 1000 mg/m^2 | 319 mg/m^2 | 116 mg/m^2 | 5.5 | 5.5 | 5.9 |  |  |  |  |  |  |  | ≈ 6.0 | positive charge |  | 
4 | NCC(O)CN [DHP, 1,3-diamino-2-hydroxypropane] | 946 mg/m^2 | 392 mg/m^2 | 85 mg/m^2 | 5.4 | 2.1 | 0.1 |  |  |  |  |  |  |  |  |  |  | 
5 | NCC(O)c1ccc(O)cc1 (stereo not shown) [OCT, Octopamine] | 280 mg/m^2 | 290 mg/m^2 | 250 mg/m^2 | 5.4 | 1.1 | 0.7 |  |  |  |  |  |  |  |  |  |  | 
6 | N[C@H](CO)Cc1ccccc1 [PHA, Phenylalaninol] | 330 mg/m^2 | 46 mg/m^2 | 10 mg/m^2 | 2.8 | 0.1 | 0.0 |  |  |  |  |  |  |  |  |  |  | 
7 | NCCN(CCN)CCN [TAEA, tris(2-aminoethyl)amine] |  |  |  | 7.6 | 5.8 | 5.1 |  |  |  |  |  |  |  |  |  |  | 
8 | N[C@H](CO)Cc1c[nH]c2ccccc12 [TRP, Tryptophanol] | 668 mg/m^2 | 297 mg/m^2 | 131 mg/m^2 | 5.4 | 1.1 | 1.0 |  |  |  |  |  |  |  |  |  |  | 
9 | N[C@H](CO)Cc1ccc(O)cc1 [TYR, Tyrosinol] | 638 mg/m^2 | 284 mg/m^2 | 137 mg/m^2 | 6.4 | 2.7 | 0.9 |  |  | 10.8 |  |  |  |  |  | positively charged | 63% | 36 times
